{"source": "patent US10196412B2", "about": "“Probe for imaging PARP-1 activity” (The Board of Trustees of the Leland Stanford Junior …, priority 2014, dated 2019)", "key": {"[1]": {"molecular_target": "T1, PARP-1 (Homo sapiens, UniProt P09874)", "T1 sequence (P09874 whole entry)": "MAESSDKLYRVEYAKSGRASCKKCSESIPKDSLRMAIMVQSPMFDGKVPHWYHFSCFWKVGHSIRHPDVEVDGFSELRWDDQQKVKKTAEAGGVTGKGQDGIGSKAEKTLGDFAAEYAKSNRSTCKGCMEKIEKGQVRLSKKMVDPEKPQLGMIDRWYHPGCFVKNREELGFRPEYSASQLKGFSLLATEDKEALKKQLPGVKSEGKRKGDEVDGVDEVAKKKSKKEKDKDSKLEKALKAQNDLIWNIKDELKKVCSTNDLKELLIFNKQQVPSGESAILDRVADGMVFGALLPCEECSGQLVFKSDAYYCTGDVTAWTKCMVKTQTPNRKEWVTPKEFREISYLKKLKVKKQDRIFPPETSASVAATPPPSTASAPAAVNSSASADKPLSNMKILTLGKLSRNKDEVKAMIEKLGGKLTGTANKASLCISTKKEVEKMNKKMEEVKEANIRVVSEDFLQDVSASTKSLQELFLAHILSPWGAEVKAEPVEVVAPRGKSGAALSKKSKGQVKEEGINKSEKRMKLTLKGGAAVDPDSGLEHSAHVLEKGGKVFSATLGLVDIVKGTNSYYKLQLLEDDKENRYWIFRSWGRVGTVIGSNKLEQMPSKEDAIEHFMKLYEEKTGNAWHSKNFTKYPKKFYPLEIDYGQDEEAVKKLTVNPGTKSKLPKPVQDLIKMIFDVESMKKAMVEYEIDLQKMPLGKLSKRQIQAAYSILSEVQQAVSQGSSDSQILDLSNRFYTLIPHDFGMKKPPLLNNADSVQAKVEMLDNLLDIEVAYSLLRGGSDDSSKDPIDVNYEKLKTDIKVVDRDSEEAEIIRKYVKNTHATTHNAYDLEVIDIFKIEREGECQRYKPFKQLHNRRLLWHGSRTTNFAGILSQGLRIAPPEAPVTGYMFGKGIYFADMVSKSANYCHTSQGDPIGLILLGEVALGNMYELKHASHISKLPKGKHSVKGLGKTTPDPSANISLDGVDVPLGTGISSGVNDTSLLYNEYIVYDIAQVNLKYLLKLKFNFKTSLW", "assay": "gel-shift assay for in vitro assessment of PARP-1 activity", "format": "biochemical"}, "[2]": {"molecular_target": "T2, ARH3 (Homo sapiens, UniProt Q9NX46)", "T2 sequence (Q9NX46 1-363)": "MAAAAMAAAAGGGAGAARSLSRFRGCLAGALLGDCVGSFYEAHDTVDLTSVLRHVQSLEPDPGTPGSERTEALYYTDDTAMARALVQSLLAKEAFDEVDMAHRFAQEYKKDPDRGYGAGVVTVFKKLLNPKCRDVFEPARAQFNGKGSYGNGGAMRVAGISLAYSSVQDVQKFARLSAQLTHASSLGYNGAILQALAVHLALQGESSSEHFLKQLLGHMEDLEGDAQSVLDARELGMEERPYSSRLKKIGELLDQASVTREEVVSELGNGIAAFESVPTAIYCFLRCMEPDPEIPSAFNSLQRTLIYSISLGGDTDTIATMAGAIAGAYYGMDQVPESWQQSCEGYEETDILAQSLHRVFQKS", "assay": "ARH3-mediated degradation of PAR formed from probe (gel)", "format": "biochemical", "conditions": "FIG. 4D"}, "[3]": {"molecular_target": "PARG (Homo sapiens, UniProt Q86W56)", "sequence (Q86W56 whole entry, species assumed)": "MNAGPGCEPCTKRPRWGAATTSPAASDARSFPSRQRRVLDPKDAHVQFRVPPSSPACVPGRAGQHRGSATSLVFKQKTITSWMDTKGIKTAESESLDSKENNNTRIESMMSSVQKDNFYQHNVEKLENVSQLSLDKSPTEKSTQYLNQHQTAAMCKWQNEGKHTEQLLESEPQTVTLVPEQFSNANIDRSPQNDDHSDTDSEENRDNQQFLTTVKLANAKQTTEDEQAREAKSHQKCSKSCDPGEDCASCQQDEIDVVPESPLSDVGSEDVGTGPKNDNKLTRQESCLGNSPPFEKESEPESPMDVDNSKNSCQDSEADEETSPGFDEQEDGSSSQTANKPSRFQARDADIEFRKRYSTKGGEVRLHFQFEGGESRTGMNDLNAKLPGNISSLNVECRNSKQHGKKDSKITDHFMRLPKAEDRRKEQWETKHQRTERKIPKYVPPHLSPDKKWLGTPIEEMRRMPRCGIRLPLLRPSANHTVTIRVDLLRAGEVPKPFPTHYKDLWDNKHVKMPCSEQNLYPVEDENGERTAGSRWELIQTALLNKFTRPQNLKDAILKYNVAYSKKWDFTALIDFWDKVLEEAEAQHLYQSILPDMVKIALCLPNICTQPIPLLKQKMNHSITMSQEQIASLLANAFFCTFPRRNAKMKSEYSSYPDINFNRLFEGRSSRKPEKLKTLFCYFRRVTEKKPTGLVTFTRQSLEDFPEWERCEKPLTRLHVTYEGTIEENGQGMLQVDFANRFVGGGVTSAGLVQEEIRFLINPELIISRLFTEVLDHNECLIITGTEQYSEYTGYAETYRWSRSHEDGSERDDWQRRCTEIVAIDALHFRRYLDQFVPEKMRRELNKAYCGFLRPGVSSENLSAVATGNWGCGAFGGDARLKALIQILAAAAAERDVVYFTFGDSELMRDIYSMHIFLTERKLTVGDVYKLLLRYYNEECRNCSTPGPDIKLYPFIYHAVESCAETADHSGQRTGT", "assay": "PARG-mediated degradation of PAR formed from probe (gel)", "format": "biochemical", "conditions": "FIG. 4D", "excerpt": "FIG. 4A illustrates novel substrate-based PARP-1 probes assessed for in vitro PARP-1 activity and PARG-mediated degradation of PAR."}, "[4]": {"molecular_target": "T1, PARP-1", "assay": "PET imaging of tracer retention in animal models of tumor radiation therapy", "format": "in vivo, mice", "parameters": "endogenous in cells; host or cells: HeLa xenografts and orthotopic MDA-MB-231 tumours in mice", "excerpt": "FIG. 8 illustrates a schematic showing animal studies performed with ^18F-PEG2-NAD (Substrate-based PARP-1 Activity Reporter: ^18F-SuPAR)\nFIGS. 9A-9C illustrate the validation of ^18F-SuPAR in mice bearing HeLa tumor xenografts following radiation therapy.\nFIGS. 10A-10C illustrate the validation of ^18F-SuPAR in mice bearing orthotopic MDA-MB-231 tumors following radiation therapy.\nFIGS. 11A-11D illustrate the validation of PARP-1 as target of ^18F-SuPAR following inhibition by BMN673.\nOne advantageous tracer probe of the disclosure is an efficient analog of NAD that has been labelled by ^18F-radionuclide for PET imaging. It is contemplated, however, that other radionuclides detectable by PET imaging technology can be used in place of ^18F. Previously unknown relationships between NAD modification and PARP-1 substrate potential have been elucidated to synthesize the tracer, 6N-(triazo-PEG2-^18F)-NAD. This tracer was validated for PARP-1 activity in vivo in two animal models of tumor radiation therapy. […] Results were confirmed ex vivo by autoradiography and immunofluorescence analysis of tumor sections."}}, "data": [{"smiles": "C#CCNc1ncnc2c1ncn2[C@@H]1O[C@H](COP(=O)(O)OP(=O)(O)OC[C@H]2O[C@@H]([n+]3cccc(C(N)=O)c3)[C@H](O)[C@@H]2O)[C@@H](O)[C@H]1O", "note": "[LCD11, Nicotinamide 6-N-propargyladenine dinucleotide]", "values": [{"measurement": "incorporation into high molecular weight PAR", "setting": "[1]; low percentage ratios of alkyne probe to NAD, FIG. 6B", "result": "incorporation into high molecular weight PAR occurs"}]}, {"smiles": "NC(=O)c1ccc[n+]([C@@H]2O[C@H](COP(=O)(O)OP(=O)(O)OC[C@H]3O[C@@H](n4cnc5c(NCc6cn(CCOCCOCCF)nn6)ncnc54)[C@H](O)[C@@H]3O)[C@@H](O)[C@H]2O)c1", "note": "[LCD67]", "values": [{"measurement": "degradation by ARH3", "setting": "[2]", "result": "resistance to degradation"}, {"measurement": "degradation by PARG", "setting": "[3]", "result": "resistance to degradation"}]}, {"smiles": "Nc1cccc2c(=O)[nH][nH]c(=O)c12", "note": "[luminol, reference compound]", "values": [{"measurement": "inhibition of PARP-1", "setting": "[1]; gel, FIG. 2A", "result": "inhibits PARP-1"}]}, {"smiles": "NC(=O)c1ccc[n+](C2OC(COP(=O)(O)OP(=O)(O)OCC3OC(n4cnc5c(NCc6cn(COCC[18F])nn6)ncnc54)C(O)C3O)C(O)C2O)c1", "note": "(stereo not shown) [6N-(triazo-PEG2-^18F)-NAD]", "values": [{"measurement": "tracer retention with increasing doses of radiation", "setting": "[4]; 0, 5, 10 Gy, two animal models of tumor radiation therapy", "result": "dose-dependence of tracer retention was observed"}, {"measurement": "probe target verification using a highly potent PARP-1 inhibitor", "setting": "[4]; in vivo, confirmed ex vivo by autoradiography and immunofluorescence", "result": "verified as PARP-1"}, {"measurement": "time-dependence of maximal tracer uptake", "setting": "[4]; two animal models of tumor radiation therapy", "result": "tumor-type specific"}]}]}
